In US8034329B2, “Repair and regeneration of renal tissue using human umbilical cord tissue-derived cells” (Advanced Technologies And Regenerative Medicine, LLC, priority 2007, dated 2011):

Test system: HLA-DR, DP, DQ expression of hUTC
Experiment: Inhibition of IFN-gamma-induced expression of HLA-DR, DP, DQ on hUTC, flow cytometry
Type: cell-based, human
Procedure: Culture-expanded human umbilical cord tissue-derived cells (022803 P4) were seeded into 6-well tissue culture plates and cultured in Dulbecco's Modified Eagles Media (DMEM)-low glucose, 15% fetal bovine serum (FBS), penicillin/streptomycin (P/S), Betamercaptoethanol (BME) to approximately 70% confluence. The cells were then treated with media containing 10 μM of respective HMG-CoA reductase inhibitor (Simvastatic acid (Alexis Biochemicals, Lausen, Switzerland) formulated as 10 mM stock reagents in DMSO) or DMSO vehicle—0.1% (Sigma, St. Louis, Mo.) and incubated overnight. The media was removed by aspiration and replaced with media containing 500 U/ml rhIFN-gamma (BD Pharmingen, Franklin Lakes, N.J.) and […] of respective HMG-CoA reductase inhibitor and incubated for 3 days. On day three, cells were harvested with trypsin.
Harvested cells were washed once with PBS and re-suspended in 100 μl of 3% FBS in PBS with 20 μl FITC-labeled HLA-DR,DP,DQ (BD Biosciences, Franklin Lakes, N.J.) or FITC-labeled IgG antibody (BD Biosciences, Franklin Lakes, N.J.) and incubated for one hour. Cells were washed once in PBS and resuspended in 500 μl PBS and analyzed on a FACSCalibur flow cytometer (BS Biosciences, Franklin Lakes, N.J.).

CCC(C)(C)C(=O)O[C@H]1C[C@@H](C)C=C2C=C[C@H](C)[C@H](CC[C@@H]3C[C@@H](O)CC(=O)O3)[C@H]21 [Simvastatin]
HLA-DR, DP, DQ expression, FITC fluorescence intensity, IFN-gamma-treated, mean (10 μM inhibitor overnight, then 500 U/ml rhIFN-gamma plus inhibitor 3 days): 5.57
HLA-DR, DP, DQ expression, FITC fluorescence intensity, No cytokine treatment, Mean (10 μM inhibitor, no IFN-gamma): 5.66
FITC fluorescence intensity, IgG control, mean (10 μM inhibitor, FITC-labeled IgG antibody): 4.4
